Measured values from PubChem BioAssay AID1671289.
pIC50: −log10 of the molar value.

Molecular target: Receptor tyrosine-protein kinase erbB-2 (Homo sapiens) (UniProt P04626)
Assay: inhibition of HER2 tyrosine kinase activity – biochemical, Z'-LYTE FRET, direct format, recombinant human, dose response (AID 1671289)
Conditions: recombinant ERBB2

Sequence of Receptor tyrosine-protein kinase erbB-2 (Homo sapiens) (P04626 whole entry, looked up): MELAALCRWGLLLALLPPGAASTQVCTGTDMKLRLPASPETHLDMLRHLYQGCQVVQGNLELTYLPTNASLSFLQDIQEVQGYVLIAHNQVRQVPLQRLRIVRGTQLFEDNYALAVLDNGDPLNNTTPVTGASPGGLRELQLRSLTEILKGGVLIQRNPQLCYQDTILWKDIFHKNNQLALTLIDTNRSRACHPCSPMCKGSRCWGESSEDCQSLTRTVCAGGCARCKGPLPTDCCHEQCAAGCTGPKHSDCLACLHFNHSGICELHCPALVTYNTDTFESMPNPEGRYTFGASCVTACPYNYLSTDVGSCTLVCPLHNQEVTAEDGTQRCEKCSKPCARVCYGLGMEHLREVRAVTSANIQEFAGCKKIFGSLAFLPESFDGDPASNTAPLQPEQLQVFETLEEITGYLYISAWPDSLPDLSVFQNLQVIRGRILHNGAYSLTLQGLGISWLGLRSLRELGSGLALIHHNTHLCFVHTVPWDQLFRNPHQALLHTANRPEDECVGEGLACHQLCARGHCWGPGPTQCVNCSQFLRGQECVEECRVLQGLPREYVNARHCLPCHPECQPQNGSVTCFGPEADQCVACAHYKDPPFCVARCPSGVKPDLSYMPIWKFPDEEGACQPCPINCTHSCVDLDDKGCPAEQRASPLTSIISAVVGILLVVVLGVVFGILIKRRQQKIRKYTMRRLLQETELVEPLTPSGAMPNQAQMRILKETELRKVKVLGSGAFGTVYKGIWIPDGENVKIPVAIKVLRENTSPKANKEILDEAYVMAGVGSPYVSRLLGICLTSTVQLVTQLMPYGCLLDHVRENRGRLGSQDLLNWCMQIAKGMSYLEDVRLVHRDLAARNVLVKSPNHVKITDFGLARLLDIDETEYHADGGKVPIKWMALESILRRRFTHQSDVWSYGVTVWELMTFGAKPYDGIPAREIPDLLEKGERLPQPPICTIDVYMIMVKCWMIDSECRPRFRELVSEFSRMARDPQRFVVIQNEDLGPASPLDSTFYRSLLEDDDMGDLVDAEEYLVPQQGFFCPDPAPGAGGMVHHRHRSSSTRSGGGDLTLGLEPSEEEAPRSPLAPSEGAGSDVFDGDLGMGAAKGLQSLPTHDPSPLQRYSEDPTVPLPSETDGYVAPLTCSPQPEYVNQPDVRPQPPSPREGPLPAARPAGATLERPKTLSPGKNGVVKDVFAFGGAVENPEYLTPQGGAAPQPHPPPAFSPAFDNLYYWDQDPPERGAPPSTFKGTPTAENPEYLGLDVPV

COc1cc2ncnc(Nc3cccc(Cl)c3)c2cc1OC
pIC50: 7.33
